# From patent publication US6090542A, “Process for inhibiting the transcription of genes” (Boehringer Ingelheim International GmbH, priority 1993, dated 2000)
# Legend:
# NF-KB [1] = test: EMSA of NF-KB DNA binding activity in total cell extracts of stimulated 7OZ/3 cells; format: cell-based, mouse; settings: 7OZ/3 cells
# Description: 7OZ/3 cells (ATCC No. TIB 158) were cultivated in RPMI-1640 medium (Gibco BRL), supplemented by 10% FCS (Gibco BRL) and 50 μM 2-mercaptoethanol. 2 ml aliquots with approx. 2-3×10^6 of suspended cells was treated with 50 ng/ml PMA (Sigma) for various periods. The treatment was interrupted by immediate centrifugation (5 s in an Eppendorf Microfuge) and cooling on ice. The cell pellets were lysed with 60 μl of a high-salt extraction buffer, containing the non-ionic detergent nonidet P-40 (Baeuerle and Baltimore, 1988b). The supernatant of a 15 minute centrifugation at 13.000 rpm in an Eppendorf Microfuge was analysed by Western blotting and EMSA (electrophoretic mobility shift assay). For SDS-PAGE and Western blotting 30 μl aliquots of the extracts were mixed with 15 μl SDS sample buffer (Laemmli, 1970), boiled and subjected to a SDS-PAGE on 12.5% polyacrylamide minigels (Biorad). The proteins were transferred by using a so-called semi-dry blotting device (Biorad; 1 h at 15V/2.5 mA/cm2) from the gels onto IMMOBILON-P-filter (0.45 μm; Millipore). The efficiency of the blot was checked by protein staining of the filters with Ponceau S (Serva). The filters were blocked overnight in a Tris-buffered saline solution, containing 0,1% (v/v) TWEEN-20 (TBST), 5% low-fat milk powder (Nestle) and 1% BSA. The filter was then incubated for one hour at ambient temperature with anti IkB-α IgG in a dialysed eluate of the IkB-α affinity column and diluted by 1:100 in the blocking buffer. After washing for 30 minutes in TBST the filter was incubated in a 1:4000 solution of goat-anti-rabbit IgG/horseradish-peroxidase conjugate (Biorad) in blocking buffer. After washing for 30 minutes in TBST the filter was treated with ECL detecting reagent (Amersham) and exposed (Kodak XR film, less than 1 minute). For EMSA 2 μl aliquots of the extracts were added to a binding mixture, resulting in a final concentration of […], […], pH 7.9, […] dithiothreitol, […] phenylmethylsulfonylfluoride (PMSF), 0.2% NONIDET P-40, 5% FICOLL, 20 μg BSA, 3 μg Poly (dl-dC) and 10.000 cpm (Cerenkov counting method) of a ^32 P marked double-stranded KB-oligonucleotide probe (Gibco BRL). The specificity of the protein DNA complex was confirmed by competition experiments and supershifting with a polyclonal antibody, recognising the C-terminal 100 amino acids of Rel-A (p65). After 20 minutes of incubation on ice the samples were subjected to electrophoresis on native 4% polyacrylamide gels, run in 0.5× TBE. The dried gels were exposed (Kodak XR film, -70° C., overnight).
# Cell cultures, extract production, SDS-PAGE and Western blotting were carried out according to example 1. The cells were […] in 25 μm TPCK or TLCK (both from Sigma), and pre-treated in dimethylsulfoxide (DMSO). The control cultures received an equivalent amount of DMSO.
# The results of the experiments are shown in FIG. 4: A: Effect of TPCK on the induction by PMA. The cells were treated without (left panel) or in presence of TPCK with PMA for the stipulated periods. The cell extracts were tested for the DNA binding activity of NF-KB using EMSA (top panel) and for the IkB-α protein quantity using Western blotting (bottom panel). The position of the NF-KB-DNA complex in a section of a fluorogram of a native gel is shown by a filled arrowhead. […] B: Effect of TPCK on the activation of NF-KB by IL-1β (I), LPS (L) and PMA (P) in 7OZ/3 cells; in control cells (Co). The cells were treated with TPCK for 10 minutes before stimulation (lanes 6-8) or for an additional 10 minutes after stimulation (lanes 10-12; 30 minutes with IL-1β and PMA or 60 minutes with LPS). The total cell extracts of control cells (lanes 1-4) and cells treated with TPCK (lanes 5-12) were tested for the DNA binding activity of NF-KB using EMSA; a section of a fluorogram of a native gel is shown. […] C: Effect of TLCK on the activation of NF-KB by PMA. […]
# IkB-α [2] = test: Western blotting of IkB-α in extracts of 7OZ/3 cells; format: cell-based, mouse
# nuclear-factor oct-1 = test: EMSA of constitutive DNA binding activity in 7OZ/3 cells; format: cell-based, mouse; settings: 7OZ/3 cells treated with TPCK
# Description: 7OZ/3 cells (ATCC No. TIB 158) were cultivated in RPMI-1640 medium (Gibco BRL), supplemented by 10% FCS (Gibco BRL) and 50 μM 2-mercaptoethanol. 2 ml aliquots with approx. 2-3×10^6 of suspended cells was treated with 50 ng/ml PMA (Sigma) for various periods. The treatment was interrupted by immediate centrifugation (5 s in an Eppendorf Microfuge) and cooling on ice. The cell pellets were lysed with 60 μl of a high-salt extraction buffer, containing the non-ionic detergent nonidet P-40 (Baeuerle and Baltimore, 1988b). The supernatant of a 15 minute centrifugation at 13.000 rpm in an Eppendorf Microfuge was analysed by Western blotting and EMSA (electrophoretic mobility shift assay). For SDS-PAGE and Western blotting 30 μl aliquots of the extracts were mixed with 15 μl SDS sample buffer (Laemmli, 1970), boiled and subjected to a SDS-PAGE on 12.5% polyacrylamide minigels (Biorad). The proteins were transferred by using a so-called semi-dry blotting device (Biorad; 1 h at 15V/2.5 mA/cm2) from the gels onto IMMOBILON-P-filter (0.45 μm; Millipore). The efficiency of the blot was checked by protein staining of the filters with Ponceau S (Serva). The filters were blocked overnight in a Tris-buffered saline solution, containing 0,1% (v/v) TWEEN-20 (TBST), 5% low-fat milk powder (Nestle) and 1% BSA. […]
# NF-KB [3] = test: Activation of NF-KB with TNF-α in various other cell lines; format: cell-based
# 7OZ/3 cells = settings: 10 μg/ml; cited from earlier work
# IkB-α [4] = test: Western blot analysis of IkB-α in HeLa cells after TNF-α stimulation; format: cell-based, human
# Description: The 7OZ/3 cells were treated with 50 E/ml IL-1β (Boehringer Mannheim) or with 15 μg/ml LPS (Sigma). Human HeLa cells were cultivated in DMEM, supplemented with 10%FCS and 1% L-glutamine and treated with 200 E/ml human recombinant TFN-α (genzyme).
# As protease inhibitors Z-Ile-Glu(Ot-Bu)-Ala-leucinal (NBIG) and the chemically related substance Z-Leu-leucinal (Cbz-L-L) were used (Z standing for benzyloxycarbonyl).
# In the figure the slower migrating form of IkB-α is identified with an asterisk.
# IL-6 = IL-6 in the cell supernatant of stimulated HeLa cells (ELISA); format: cell-based, human; settings: stimulus alone (TNF 200 E/ml or PMA 50 ng/ml)
# Description: (§1) The principle of the test arrangement corresponded to that of the previous examples.
# (§2) The cells were stimulated--with or without 30 minutes of pre-treatment with 100 μmol NBIG--with TNF (200 E/ml) or with PMA (50 ng/ml) and the concentration of IL-6 or IL-8 was measured in the cell supernatant at various intervals using ELISA (British Biotechnology Products Ltd.).
# IL-8 = IL-8 in the cell supernatant of stimulated HeLa cells (ELISA); format: cell-based, human; settings: 120', stimulus alone (TNF 200 E/ml or PMA 50 ng/ml)
# Description: as §1, §2
compound,measurement,setting,value
"Cc1ccc(S(=O)(=O)N[C@@H](Cc2ccccc2)C(=O)CCl)cc1 [TPCK, p-tosyl-L-phenylalaninechloromethylketone]",ID50 (NF-KB-DNA binding activity),NF-KB [1]; PMA treatment,approx. 8 μM
same,activation of NF-KB by IL-IB and LPS,NF-KB [1]; inhibitor before stimulation,effective in preventing
same,suppression of NF-KB-DNA binding activity,"NF-KB [1]; one-hour treatment with 25 μM, subsequent PMA treatment",completely suppress
same,"NF-KB activation, inhibitor given after stimulation","NF-KB [1]; treatment after stimulation with PMA, IL-1 or LPS",hardly impaired
same,degradation of IkB-α in PMA treated cells (Western blot),"IkB-α [2]; 7OZ/3 cells, TPCK, PMA",completely prevent
same,"constitutive DNA binding activity, including nuclear-factor oct-1",nuclear-factor oct-1,not significantly influenced
same,activation of NF-KB with TNF-α,NF-KB [3],effective in preventing
C[C@@H]1C[C@@H]([C@H](O)CC2CC(=O)NC(=O)C2)C(=O)[C@@H](C)C1 [cycloheximide],binding of NF-KB to DNA,"NF-KB [1]; one-hour treatment with cycloheximide, no PMA",induced only slightly
same,reoccurrence of IkB-α 40 minutes after PMA treatment,"IkB-α [2]; 7OZ/3 cells pre-treated with cycloheximide, then PMA",prevents
same,IkB-α detected by Western blotting,"IkB-α [2]; 7OZ/3 cells, one-hour treatment with cycloheximide, no PMA",large amounts
same,half-life of IkB-α,"IkB-α [2]; cycloheximide-treated 7OZ/3 cells, without PMA, quantitative Western blotting",approx. 138 minutes
same,inhibition of protein synthesis,7OZ/3 cells,90%
C=C1[C@@H](O)[C@@H]2O[C@]3(CC[C@H](/C=C/[C@@H](C)[C@@H]4CC(C)=C[C@@]5(O[C@H](C[C@@](C)(O)C(=O)O)CC[C@H]5O)O4)O3)CC[C@H]2O[C@@H]1[C@@H](O)C[C@H](C)[C@H]1O[C@@]2(CCCCO2)CC[C@H]1C [okadaic acid],quicker migrating non-phosphorylated form of IkB-α,"IkB-α [4]; 100 nM, together with NBIG",disappear completely
IL-1β: inflammatory cytokine used as inducer of NF-KB,decay of IkB-α,IkB-α [2]; 7OZ/3 cells,induced a decay
TNF-α,decay of IkB-α,IkB-α [4]; HeLa cells,induced a decay
same,time after stimulation at which most of the IkB-α had decayed,IkB-α [4]; HeLa cells,≤ 5 min
same,IL-6,IL-6; 15',875 pg/mL
same,IL-6,IL-6; 120',6750 pg/mL
same,IL-8,IL-8,52 pg/mL
